{
  "source": "PubChem BioAssay AID1845197",
  "about": "(Molecular Pharmacology Branch, DTP, NCI, 2023)",
  "system": "349418-098-R tumor spheroid viability",
  "experiment": "Anticancer human tumor 349418-098-R patient-derived lung adenocarcinoma cell line growth inhibition",
  "settings": "spheroids with HUVEC and MSC; for viability, T/C: stronger effect = lower value",
  "how_it_was_run": "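Complex spheroids of malignant cells with endothelial cells and mesenchymal stem cells; agents alone or combined, from near clinical Cmax (or 10 microM if unknown) down in half-log steps, 0.25% DMSO final.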",
  "note": "pIC50: −log10 of the molar value. Values joined by “and” are separate entries in the source; they are usually repeats but may differ in a detail not shown here. Equal entries are not always repeated.",
  "data": [
    {"molecule": "Cn1ncnc1[C@H]1c2n[nH]c(=O)c3cc(F)cc(c23)N[C@@H]1c1ccc(F)cc1", "note": "+ COc1cc2c(cc1O)CCNC21CSC2c3c(OC(C)=O)c(C)c4c(c3C(COC1=O)N1C(O)C3Cc5cc(C)c(OC)c(O)c5C(C21)N3C)OCO4;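 further: spheroids exposed to compound for 7 days before measurement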;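 on viability, T/C: percent of vehicle control viability with 100% = DMSO-treated spheroids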", "values": [
      {"measurement": "pIC50", "setting": "curve of first compound, second compound 30 pM", "result": 5.79},
      {"measurement": "pIC50", "setting": "curve of first compound, second compound 94.9 pM", "result": 6.02},
      {"measurement": "pIC50", "setting": "curve of first compound, second compound 0.0003 µM", "result": 6.97},
      {"measurement": "pIC50", "setting": "curve of first compound, second compound 0.000949 µM", "result": "> 8.02"},
      {"measurement": "pIC50", "setting": "curve of first compound, second compound 0.003 µM", "result": "> 8.02"},
      {"measurement": "viability, T/C", "setting": "second compound 30 pM, first compound 0.00949 µM", "result": 87.2, "unit": "%"},
      {"measurement": "viability, T/C", "setting": "second compound 30 pM, first compound 0.03 µM", "result": 97.2, "unit": "%"},
      {"measurement": "viability, T/C", "setting": "second compound 30 pM, first compound 0.0949 µM", "result": 88.8, "unit": "%"},
      {"measurement": "viability, T/C", "setting": "second compound 30 pM, first compound 0.3 µM", "result": 93.5, "unit": "%"},
      {"measurement": "viability, T/C", "setting": "second compound 30 pM, first compound 0.949 µM", "result": 86.8, "unit": "%"},
      {"measurement": "viability, T/C", "setting": "second compound 30 pM, first compound 3 µM", "result": 9.75, "unit": "%"},
      {"measurement": "viability, T/C", "setting": "second compound 94.9 pM, first compound 0.00949 µM", "result": 93.2, "unit": "%"},
      {"measurement": "viability, T/C", "setting": "second compound 94.9 pM, first compound 0.03 µM", "result": 89.6, "unit": "%"},
      {"measurement": "viability, T/C", "setting": "second compound 94.9 pM, first compound 0.0949 µM", "result": 85.6, "unit": "%"},
      {"measurement": "viability, T/C", "setting": "second compound 94.9 pM, first compound 0.3 µM", "result": 94.8, "unit": "%"},
      {"measurement": "viability, T/C", "setting": "second compound 94.9 pM, first compound 0.949 µM", "result": 50.3, "unit": "%"},
      {"measurement": "viability, T/C", "setting": "second compound 94.9 pM, first compound 3 µM", "result": 4.92, "unit": "%"},
      {"measurement": "viability, T/C", "setting": "second compound 0.0003 µM, first compound 0.00949 µM", "result": 66.4, "unit": "%"},
      {"measurement": "viability, T/C", "setting": "second compound 0.0003 µM, first compound 0.03 µM", "result": 68.5, "unit": "%"},
      {"measurement": "viability, T/C", "setting": "second compound 0.0003 µM, first compound 0.0949 µM", "result": 47.8, "unit": "%"},
      {"measurement": "viability, T/C", "setting": "second compound 0.0003 µM, first compound 0.3 µM", "result": 34.9, "unit": "%"},
      {"measurement": "viability, T/C", "setting": "second compound 0.0003 µM, first compound 0.949 µM", "result": 11.5, "unit": "%"},
      {"measurement": "viability, T/C", "setting": "second compound 0.0003 µM, first compound 3 µM", "result": 2.39, "unit": "%"},
      {"measurement": "viability, T/C", "setting": "second compound 0.000949 µM, first compound 0.00949 µM", "result": 0.87, "unit": "%"},
      {"measurement": "viability, T/C", "setting": "second compound 0.000949 µM, first compound 0.03 µM", "result": 0.43, "unit": "%"},
      {"measurement": "viability, T/C", "setting": "second compound 0.000949 µM, first compound 0.0949 µM", "result": 0.53, "unit": "%"},
      {"measurement": "viability, T/C", "setting": "second compound 0.000949 µM, first compound 0.3 µM", "result": 0.21, "unit": "%"},
      {"measurement": "viability, T/C", "setting": "second compound 0.000949 µM, first compound 0.949 µM", "result": 0.13, "unit": "%"},
      {"measurement": "viability, T/C", "setting": "second compound 0.000949 µM, first compound 3 µM", "result": 0.19, "unit": "%"},
      {"measurement": "viability, T/C", "setting": "second compound 0.003 µM, first compound 0.00949 µM", "result": 1.57, "unit": "%"},
      {"measurement": "viability, T/C", "setting": "second compound 0.003 µM, first compound 0.03 µM", "result": 1.54, "unit": "%"},
      {"measurement": "viability, T/C", "setting": "second compound 0.003 µM, first compound 0.0949 µM", "result": 1.41, "unit": "%"},
      {"measurement": "viability, T/C", "setting": "second compound 0.003 µM, first compound 0.3 µM", "result": 1.35, "unit": "%"},
      {"measurement": "viability, T/C", "setting": "second compound 0.003 µM, first compound 0.949 µM", "result": 2.21, "unit": "%"},
      {"measurement": "viability, T/C", "setting": "second compound 0.003 µM, first compound 3 µM", "result": 3.32, "unit": "%"}
    ]},
    {"molecule": "Cn1ncnc1[C@H]1c2n[nH]c(=O)c3cc(F)cc(c23)N[C@@H]1c1ccc(F)cc1", "note": "+ Cn1nnc2c(C(N)=O)ncn2c1=O", "values": [
      {"measurement": "pIC50", "setting": "curve of first compound, second compound 1 µM", "result": 5.80},
      {"measurement": "pIC50", "setting": "curve of first compound, second compound 3.16 µM", "result": 5.83},
      {"measurement": "pIC50", "setting": "curve of first compound, second compound 10 µM", "result": 5.96},
      {"measurement": "pIC50", "setting": "curve of first compound, second compound 31.6 µM", "result": 6.88},
      {"measurement": "pIC50", "setting": "curve of first compound, second compound 100 µM", "result": "> 8.02"},
      {"measurement": "viability, T/C", "setting": "second compound 1 µM, first compound 0.00949 µM", "result": 99, "unit": "%"},
      {"measurement": "viability, T/C", "setting": "second compound 1 µM, first compound 0.03 µM", "result": 99.2, "unit": "%"},
      {"measurement": "viability, T/C", "setting": "second compound 1 µM, first compound 0.0949 µM", "result": 94.3, "unit": "%"},
      {"measurement": "viability, T/C", "setting": "second compound 1 µM, first compound 0.3 µM", "result": 99.9, "unit": "%"},
      {"measurement": "viability, T/C", "setting": "second compound 1 µM, first compound 0.949 µM", "result": 82.9, "unit": "%"},
      {"measurement": "viability, T/C", "setting": "second compound 1 µM, first compound 3 µM", "result": 8.45, "unit": "%"},
      {"measurement": "viability, T/C", "setting": "second compound 3.16 µM, first compound 0.00949 µM", "result": 100, "unit": "%"},
      {"measurement": "viability, T/C", "setting": "second compound 3.16 µM, first compound 0.03 µM", "result": 99.9, "unit": "%"},
      {"measurement": "viability, T/C", "setting": "second compound 3.16 µM, first compound 0.0949 µM", "result": 97.5, "unit": "%"},
      {"measurement": "viability, T/C", "setting": "second compound 3.16 µM, first compound 0.3 µM", "result": 95.4, "unit": "%"},
      {"measurement": "viability, T/C", "setting": "second compound 3.16 µM, first compound 0.949 µM", "result": 77.1, "unit": "%"},
      {"measurement": "viability, T/C", "setting": "second compound 3.16 µM, first compound 3 µM", "result": 6.31, "unit": "%"},
      {"measurement": "viability, T/C", "setting": "second compound 10 µM, first compound 0.00949 µM", "result": 104, "unit": "%"},
      {"measurement": "viability, T/C", "setting": "second compound 10 µM, first compound 0.03 µM", "result": 98, "unit": "%"},
      {"measurement": "viability, T/C", "setting": "second compound 10 µM, first compound 0.0949 µM", "result": 95.1, "unit": "%"},
      {"measurement": "viability, T/C", "setting": "second compound 10 µM, first compound 0.3 µM", "result": 94, "unit": "%"},
      {"measurement": "viability, T/C", "setting": "second compound 10 µM, first compound 0.949 µM", "result": 56.2, "unit": "%"},
      {"measurement": "viability, T/C", "setting": "second compound 10 µM, first compound 3 µM", "result": 6.77, "unit": "%"},
      {"measurement": "viability, T/C", "setting": "second compound 31.6 µM, first compound 0.00949 µM", "result": 97.7, "unit": "%"},
      {"measurement": "viability, T/C", "setting": "second compound 31.6 µM, first compound 0.03 µM", "result": 77.7, "unit": "%"},
      {"measurement": "viability, T/C", "setting": "second compound 31.6 µM, first compound 0.0949 µM", "result": 56.5, "unit": "%"},
      {"measurement": "viability, T/C", "setting": "second compound 31.6 µM, first compound 0.3 µM", "result": 35.6, "unit": "%"},
      {"measurement": "viability, T/C", "setting": "second compound 31.6 µM, first compound 0.949 µM", "result": 12.3, "unit": "%"},
      {"measurement": "viability, T/C", "setting": "second compound 31.6 µM, first compound 3 µM", "result": 3.26, "unit": "%"},
      {"measurement": "viability, T/C", "setting": "second compound 100 µM, first compound 0.00949 µM", "result": 16.3, "unit": "%"},
      {"measurement": "viability, T/C", "setting": "second compound 100 µM, first compound 0.03 µM", "result": 12.1, "unit": "%"},
      {"measurement": "viability, T/C", "setting": "second compound 100 µM, first compound 0.0949 µM", "result": 9.69, "unit": "%"},
      {"measurement": "viability, T/C", "setting": "second compound 100 µM, first compound 0.3 µM", "result": 7.58, "unit": "%"},
      {"measurement": "viability, T/C", "setting": "second compound 100 µM, first compound 0.949 µM", "result": 6.59, "unit": "%"},
      {"measurement": "viability, T/C", "setting": "second compound 100 µM, first compound 3 µM", "result": 1.86, "unit": "%"}
    ]},
    {"molecule": "Cc1cc(C)c(CNC(=O)c2cc(-c3ccc(CN4CCOCC4)cc3)cc3c2cnn3C2CCCC2)c(=O)[nH]1", "values": [
      {"measurement": "viability, T/C", "setting": "compound 0.0316 µM", "result": "99.9% and 101% and 92.4%"},
      {"measurement": "viability, T/C", "setting": "compound 0.1 µM", "result": "118% and 95.5% and 100%"},
      {"measurement": "viability, T/C", "setting": "compound 0.316 µM", "result": "111% and 98.5% and 101%"},
      {"measurement": "viability, T/C", "setting": "compound 1 µM", "result": "109% and 97% and 96.8%"},
      {"measurement": "viability, T/C", "setting": "compound 3.16 µM", "result": "126% and 87.5% and 87.7%"},
      {"measurement": "viability, T/C", "setting": "compound 10 µM", "result": "75.6% and 33.3% and 40.8%"},
      {"measurement": "pIC50", "setting": "curve of compound", "result": "< 5.00 and 5.15 and 5.10"}
    ]}
  ]
}
